pIC50, pKi: −log10 of the molar value. Read-outs that look alike come from different tables or passages of the source. Where only a bound is given, the exact number is not on record here.

What is called pKi is −log10 of the Ki, conventionally taken in molar units. Usually pIC50 stands for the IC50 on a negative log10 scale, so that one unit is a factor of ten.

For assay [1], the target named is human Y1 receptor (hY1R) (Homo sapiens, UniProt P25929).
Assay [2] has as its target Nluc-GPR1 (Homo sapiens, UniProt P46091). Kind of assay: cell-based. The method, then:
After overnight incubation at standard conditions, 75,000 cells/well were seeded into a black, solid 96-well plate using phenol red-free culture medium. […] (positive control) was added to the cells. […] The readout was performed directly in a microplate reader (Tecan Spark) with a filter for fluorescence (λem = 550–700 nm) and bioluminescence (λem = 430–470 nm). Data studies were performed as mentioned for arr-3 BRET.

Assay [3] addresses CMKLR1 (Homo sapiens, UniProt Q99788). An excerpt:
Data are presented as mean±SEM.
(2 pictures or pasted objects on this page, not shown here)

Assay [4] deals with CMKLR1. The following applies: cited from earlier work.

Chain of Nluc-GPR1 (P46091 whole entry): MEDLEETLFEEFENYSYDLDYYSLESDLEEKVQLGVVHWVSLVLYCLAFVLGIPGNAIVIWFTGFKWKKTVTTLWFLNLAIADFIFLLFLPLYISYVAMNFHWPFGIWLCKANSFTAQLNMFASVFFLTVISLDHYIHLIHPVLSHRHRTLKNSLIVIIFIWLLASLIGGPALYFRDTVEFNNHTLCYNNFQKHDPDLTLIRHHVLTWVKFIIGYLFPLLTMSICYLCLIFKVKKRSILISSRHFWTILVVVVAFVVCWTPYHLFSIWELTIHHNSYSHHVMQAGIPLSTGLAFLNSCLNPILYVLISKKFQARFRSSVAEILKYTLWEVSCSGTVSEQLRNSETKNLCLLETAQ
Chain of human Y1 receptor (hY1R) (P25929 whole entry): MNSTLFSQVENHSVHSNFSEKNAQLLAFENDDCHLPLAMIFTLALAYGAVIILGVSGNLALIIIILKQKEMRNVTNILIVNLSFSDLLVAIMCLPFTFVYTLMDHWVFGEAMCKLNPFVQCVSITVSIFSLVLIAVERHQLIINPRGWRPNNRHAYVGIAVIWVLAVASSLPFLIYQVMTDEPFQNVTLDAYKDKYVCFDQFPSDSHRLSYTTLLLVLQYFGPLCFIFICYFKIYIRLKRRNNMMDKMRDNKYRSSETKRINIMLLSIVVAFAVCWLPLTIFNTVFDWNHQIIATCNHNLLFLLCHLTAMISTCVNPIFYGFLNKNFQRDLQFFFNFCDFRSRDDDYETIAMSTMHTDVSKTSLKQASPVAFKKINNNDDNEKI
Chain of CMKLR1 (Homo sapiens, UniProt Q99788) (Q99788 3-373): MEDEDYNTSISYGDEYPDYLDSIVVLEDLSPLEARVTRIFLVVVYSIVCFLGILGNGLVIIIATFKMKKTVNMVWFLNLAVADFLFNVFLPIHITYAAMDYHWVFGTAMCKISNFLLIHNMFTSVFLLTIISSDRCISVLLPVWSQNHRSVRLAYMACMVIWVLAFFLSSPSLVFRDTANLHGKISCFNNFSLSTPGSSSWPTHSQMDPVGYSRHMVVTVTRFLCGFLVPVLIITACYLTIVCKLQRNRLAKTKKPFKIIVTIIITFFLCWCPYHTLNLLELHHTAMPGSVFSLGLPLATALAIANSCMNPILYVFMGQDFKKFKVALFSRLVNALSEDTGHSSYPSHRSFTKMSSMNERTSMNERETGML

As to `COc1ccc(C)cc1NC(=O)CSc1nc(=O)c(S(=O)(=O)c2ccc(C)c(Cl)c2)c[nH]1` [Compound 1, 2-{[5-(3-Chloro-4-methylbenzenesulfonyl)-4-oxo-1,4-dihydropyrimidin-2-yl]sulfanyl}-N-(2-methoxy-5-methyl-phenyl)acetamide], in assay [1], the “effect at hY1R (in words)” value is “no effect”. The pKi was less than 6.00 in assay [2] and 5.88 in assay [2] (read-out: Nluc-GPR1 Ki).

Regarding `C[N+](C)(C)CCC(=O)c1cccc2ccccc12.[I-]` [α-NETA, 2-(α-naphthoyl)-ethyl-trimethylammonium iodide], the “influence on CMKLR1 G protein signaling (in words)” value in assay [3] was “No influence”. In assay [4], the pIC50 was 6.42.
